Assay results published in the supplement of paper PMC4862054.
“And” between values parts separate entries of the source, which are not always exact repeats. Equal values may be shown once.

What was measured:
CAL-51 [1] = assay: normalised viability (% of control), CellTiter-Blue; higher = more viable cells (about 100 = DMSO control); details: incubation time: 72 h
Procedure: (§1)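 DSRT, CellTiter-Blue viability, 72 h incubation. Signal is normalised to DMSO and benzethonium chloride controls. Value is the normalised response at dose 6.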

MDA-MB-453 [2] = assay: as above; details: incubation time: 72 h
Procedure: as §1

HDQ-P1 [3] = assay: as above; details: incubation time: 72 h
Procedure: as §1

CAL-85-1 [4] = assay: as above; details: incubation time: 72 h
Procedure: as §1

CAL-148 [5] = assay: as above; details: incubation time: 72 h
Procedure: as §1

DU-4475 [6] = assay: as above; details: incubation time: 72 h
Procedure: as §1

MDA-MB-453 [7] = details: 72 h
Method in brief: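 Breast cancer cell lines in 20 µl suspension were seeded onto 384-well plates pre-loaded with compound dissolved in 5 µl medium, then incubated 72 h. For viability, 2.5 µl CellTiter-Blue was added for 2 h at 37 °C and fluorescence read at 560/590 nm. Each plate was normalised to vehicle and a positive kill control and checked by Z'-factor. EC50 comes from the fitted percent-inhibition dose-response curve, censored at the highest concentration; rows with zero drug sensitivity score were dropped.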

SK-BR-3 = assay: drug sensitivity score (DSS), CellTiter-Blue viability (DSS (AUC-based score)); higher = stronger viability inhibition; extreme values may be limits of the assay; details: incubation time: 72 h
Procedure: (§2)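 DSRT with the CellTiter-Blue (resazurin reduction) viability readout, fluorescence 560/590 nm, 72 h incubation. Plates were normalised to DMSO and benzethonium chloride controls. DSS is computed from the area under the fitted dose-response curve (5 or 9 concentrations).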

BT-474 = assay: as above; details: incubation time: 72 h
Procedure: as §2

CAL-51 [8] = assay: as above; details: incubation time: 72 h
Procedure: as §2

MFM-223 = assay: as above; details: incubation time: 72 h
Procedure: as §2

CAL-120 = assay: as above; details: incubation time: 72 h
Procedure: as §2

HCC1937 = assay: as above; details: incubation time: 72 h
Procedure: as §2

HDQ-P1 [9] = assay: as above; details: incubation time: 72 h
Procedure: as §2

HCC1143 = assay: as above; details: incubation time: 72 h
Procedure: as §2

HCC1599 = assay: as above; details: incubation time: 72 h
Procedure: as §2

CAL-85-1 [10] = assay: as above; details: incubation time: 72 h
Procedure: as §2

MDA-MB-231 = assay: as above; details: incubation time: 72 h
Procedure: as §2

MDA-MB-436 = assay: as above; details: incubation time: 72 h
Procedure: as §2

Hs578T = assay: as above; details: incubation time: 72 h
Procedure: as §2

BT-549 = assay: as above; details: incubation time: 72 h
Procedure: as §2

MDA-MB-468 = assay: as above; details: incubation time: 72 h
Procedure: as §2

CAL-148 [11] = assay: as above; details: incubation time: 72 h
Procedure: as §2

DU-4475 [12] = assay: as above; details: incubation time: 72 h
Procedure: as §2

MDA-MB-453 [13] = assay: as above; details: incubation time: 72 h
Procedure: as §2

Compound	EC50, CellTiter-Blue viability (MDA-MB-453 [7])	normalised viability (CAL-51 [1]; 3000 nM)	normalised viability (MDA-MB-453 [2]; 3000 nM)	normalised viability (HDQ-P1 [3]; 3000 nM)	normalised viability (CAL-85-1 [4]; 3000 nM)	normalised viability (CAL-148 [5]; 3000 nM)	normalised viability (DU-4475 [6]; 3000 nM)	drug sensitivity score (SK-BR-3)	drug sensitivity score (BT-474)	drug sensitivity score (CAL-51 [8])	drug sensitivity score (MFM-223)	drug sensitivity score (CAL-120)	drug sensitivity score (HCC1937)	drug sensitivity score (HDQ-P1 [9])	drug sensitivity score (HCC1143)	drug sensitivity score (HCC1599)	drug sensitivity score (CAL-85-1 [10])	drug sensitivity score (MDA-MB-231)	drug sensitivity score (MDA-MB-436)	drug sensitivity score (Hs578T)	drug sensitivity score (BT-549)	drug sensitivity score (MDA-MB-468)	drug sensitivity score (CAL-148 [11])	drug sensitivity score (DU-4475 [12])	normalised viability (CAL-51 [1]; 300 nM)	normalised viability (MDA-MB-453 [2]; 300 nM)	normalised viability (HDQ-P1 [3]; 300 nM)	normalised viability (CAL-85-1 [4]; 300 nM)	normalised viability (CAL-148 [5]; 300 nM)	normalised viability (DU-4475 [6]; 300 nM)	drug sensitivity score (MDA-MB-453 [13])	normalised viability (CAL-51 [1]; 30 nM)	normalised viability (MDA-MB-453 [2]; 30 nM)	normalised viability (HDQ-P1 [3]; 30 nM)	normalised viability (CAL-85-1 [4]; 30 nM)	normalised viability (CAL-148 [5]; 30 nM)	normalised viability (DU-4475 [6]; 30 nM)
Cc1cc2c(C(C)C)c(O)c(O)c(C=O)c2c(O)c1-c1c(C)cc2c(C(C)C)c(O)c(O)c(C=O)c2c1O [Gossypol]		96.6%	62.9%	105%	80.2%	114%	49.2%																														
C/C(=C\c1csc(C)n1)[C@@H]1C[C@@H]2O[C@]2(C)CCC[C@H](C)[C@H](O)[C@@H](C)C(=O)C(C)(C)[C@@H](O)CC(=O)O1 [Patupilone]	4.4 nM							23.7	18.2	20.4	12.7	19.8	27	12.2	16.3	1.08	24.6	28.5	15.4	23.1	22.4	15.3	24.8	22.3							22.5	28.8%	24.8%	48.4%	27.2%	19.6%	18.5%
CNNCc1ccc(C(=O)NC(C)C)cc1 [Procarbazine]								0	0	0	0	0	0	0	0	0	0	0	0.866	0	0	0	0	0	105%	101%	97.5%	100%	101%	83.2%	0						

Continued, in another order:

EC50, CellTiter-Blue viability (MDA-MB-453 [7])	Compound	normalised viability (CAL-51 [1]; 3000 nM)	normalised viability (MDA-MB-453 [2]; 3000 nM)	normalised viability (HDQ-P1 [3]; 3000 nM)	normalised viability (CAL-85-1 [4]; 3000 nM)	normalised viability (CAL-148 [5]; 3000 nM)	normalised viability (DU-4475 [6]; 3000 nM)	drug sensitivity score (SK-BR-3)	drug sensitivity score (BT-474)	drug sensitivity score (CAL-51 [8])	drug sensitivity score (MFM-223)	drug sensitivity score (CAL-120)	drug sensitivity score (HCC1937)	drug sensitivity score (HDQ-P1 [9])	drug sensitivity score (HCC1143)	drug sensitivity score (HCC1599)	drug sensitivity score (CAL-85-1 [10])	drug sensitivity score (MDA-MB-231)	drug sensitivity score (MDA-MB-436)	drug sensitivity score (Hs578T)	drug sensitivity score (BT-549)	drug sensitivity score (MDA-MB-468)	drug sensitivity score (CAL-148 [11])	drug sensitivity score (DU-4475 [12])	normalised viability (CAL-51 [1]; 300 nM)	normalised viability (MDA-MB-453 [2]; 300 nM)	normalised viability (HDQ-P1 [3]; 300 nM)	normalised viability (CAL-85-1 [4]; 300 nM)	normalised viability (CAL-148 [5]; 300 nM)	normalised viability (DU-4475 [6]; 300 nM)	drug sensitivity score (MDA-MB-453 [13])	normalised viability (CAL-51 [1]; 30 nM)	normalised viability (MDA-MB-453 [2]; 30 nM)	normalised viability (HDQ-P1 [3]; 30 nM)	normalised viability (CAL-85-1 [4]; 30 nM)	normalised viability (CAL-148 [5]; 30 nM)	normalised viability (DU-4475 [6]; 30 nM)
4540 nM	Cc1ccc(NC(=O)c2ccc(CN3CCN(C)CC3)cc2)cc1Nc1nccc(-c2cccnc2)n1 [Imatinib]							0	0	0	0	0	0	0	0	0	0	0	0	0	0	0	0	0	106% and 102%	86.5% and 88.3%	74.9% and 72.5%	101% and 94.4%	83.5% and 104%	97.8% and 89.4%							
8.31 nM	Cn1c(=O)n(-c2ccc(C(C)(C)C#N)cc2)c2c3cc(-c4cnc5ccccc5c4)ccc3ncc21 [NVP-BEZ235]							15.9	12	20.7	19.7	20.4	14.5	16.2	15.4	8.13	16.2	17	5.52	18.4	18.5	13.3	19.5	13.5							21.6	29.5%	21.9%	39.8%	47.8%	32.4%	65.2%
4240 nM	CN(C)C[C@@H]1CCn2cc(c3ccccc32)C2=C(C(=O)NC2=O)c2cn(c3ccccc23)CCO1 [Ruboxistaurin]							6.94	6.23	4.59	6.81	1.65	6.14	3.47	0	3.54	0	4.1	10.7	1.19	3.74	6.34	3.06	6.32	91%	104%	48.4%	106%	99%	82.2%	4.14						
3.57 nM	CC[C@]1(O)C[C@H]2CN(CCc3c([nH]c4ccccc34)[C@@](C(=O)OC)(c3cc4c(cc3OC)N(C=O)[C@H]3[C@@](O)(C(=O)OC)[C@H](OC(C)=O)[C@]5(CC)C=CCN6CC[C@]43[C@@H]65)C2)C1 [Vincristine]							33.6 and 41.1		17.5 and 26.3	16.9 and 22.7	27.8 and 35.7	23.5 and 35	17.8 and 20.6	22.6 and 27.4	6.95 and 15.8	17.9 and 25	27 and 34.4	18 and 21	26.5 and 37.7	25.5 and 32	23.8 and 23.7	23 and 26.8	18.9 and 28.9	12.6%	34.2%	27.9%	39.6%	24.5%	12%	19.7 and 30.5	42.3%	29.2%	33.5%	34.9%	16.5%	36.9%
